Earlier results, collected in patent US5969096A (priority 1998, dated 1999).

Target: neuronal voltage-sensitive Ca2+ channels

ω-conotoxin GVIA
affinity (Kd) for high-affinity targets: sub-picomolar | time for 50% of the peptide to dissociate: more than 7 hours
